What was measured:
Assay in all cases: relative viability (nuclei count vs DMSO), 5 days (fraction); higher = more cells survive
AZ3146 + Decitabine = compound: CN1CCC(CC1)OC2=CC(=C(C=C2)NC3=NC=C4C(=N3)N(C(=O)N4C)C5CCCC5)OC [AZ3146] + Nc1ncn([C@H]2C[C@H](O)[C@@H](CO)O2)c(=O)n1 [Decitabine] (partner 2 µM)
How it was run: (§1)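 For relative viability, nuclei counts in treated wells were divided by those in vehicle wells. Lung cancer cell lines had been pin-tool dosed in 1536-well plates the day after seeding and cultured for 5 days, then fixed and stained in one step (final 0.05% Triton X-100, 1% formaldehyde, 1 ug/ml Hoechst) and imaged at 4×. Doses were one drug alone or a fixed anchor-drug dose plus five library-drug doses (not always all listed) in √10 steps, and values are duplicate-plate medians.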

AZ3146 + OSI-027 = compound: CN1CCC(CC1)OC2=CC(=C(C=C2)NC3=NC=C4C(=N3)N(C(=O)N4C)C5CCCC5)OC [AZ3146] + COc1cccc2cc(-c3nc([C@H]4CC[C@H](C(=O)O)CC4)n4ncnc(N)c34)[nH]c12 [OSI-027] (partner 0.5 µM)
How it was run: as §1

GSK-J4 + Pemetrexed = compound: CCOC(=O)CCNc1cc(N2CCc3ccccc3CC2)nc(-c2ccccn2)n1 [GSK-J4] + Nc1nc2[nH]cc(CCc3ccc(C(=O)N[C@@H](CCC(=O)O)C(=O)O)cc3)c2c(=O)[nH]1 [Pemetrexed] (partner 0.2 µM)
How it was run: as §1

AZ3146 + Olaparib = compound: CN1CCC(CC1)OC2=CC(=C(C=C2)NC3=NC=C4C(=N3)N(C(=O)N4C)C5CCCC5)OC [AZ3146] + O=C(c1cc(Cc2n[nH]c(=O)c3ccccc23)ccc1F)N1CCN(C(=O)C2CC2)CC1 [Olaparib] (partner 8 µM)
How it was run: as §1

Cell Line	relative viability (AZ3146 + Decitabine; first compound 0.08 µM)	relative viability (AZ3146 + Decitabine; first compound 0.253 µM)	relative viability (AZ3146 + Decitabine; first compound 0.8 µM)	relative viability (AZ3146 + Decitabine; first compound 2.53 µM)	relative viability (AZ3146 + Decitabine; first compound 8 µM)	relative viability (AZ3146 + OSI-027; first compound 0.08 µM)	relative viability (AZ3146 + OSI-027; first compound 0.253 µM)	relative viability (AZ3146 + OSI-027; first compound 0.8 µM)	relative viability (AZ3146 + OSI-027; first compound 2.53 µM)	relative viability (AZ3146 + OSI-027; first compound 8 µM)	relative viability (GSK-J4 + Pemetrexed; first compound 0.5 µM)	relative viability (GSK-J4 + Pemetrexed; first compound 1.581 µM)	relative viability (GSK-J4 + Pemetrexed; first compound 5 µM)	relative viability (GSK-J4 + Pemetrexed; first compound 15.81 µM)	relative viability (GSK-J4 + Pemetrexed; first compound 50 µM)	relative viability (AZ3146 + Olaparib; first compound 0.08 µM)	relative viability (AZ3146 + Olaparib; first compound 0.253 µM)	relative viability (AZ3146 + Olaparib; first compound 0.8 µM)	relative viability (AZ3146 + Olaparib; first compound 2.53 µM)	relative viability (AZ3146 + Olaparib; first compound 8 µM)
NCI-H2342	0.653	0.681	0.756	0.683	0.714	0.592	0.536	0.59	0.508	0.61	0.737	0.79	0.762	0.84	0.824	0.464	0.474	0.529	0.487	0.695
H3255	0.604	0.805	0.562	0.678	0.604	0.654	0.483	0.594	0.612	0.638	0.649	0.551	0.491	0.503	0.502	0.498	0.526	0.605	0.564	0.564
EKVX	0.285	0.304	0.381	0.319	0.286	0.72	0.653	0.629	0.63	0.687	0.351		0.426	0.418	0.315	0.798	0.828	0.811	1.07	0.798
NCI-H1993	0.699	0.54	0.561	0.588	0.594	0.531	0.579	0.541	0.531	0.543	0.699	0.585	0.575	0.562	0.476	1	1.12	1.12	1.04	1.06
NCI-H650	0.307	0.31	0.324	0.317	0.323	0.504	0.461	0.359	0.588	0.506	0.82	0.843		0.833	0.842	0.271	0.361	0.385	0.46	0.413
NCI-H460	0.38	0.475	0.445	0.467	0.178	0.636	0.72	0.622	0.622	0.423	0.0749		0.0554	0.0643	0.0656	0.242	0.45	0.416	0.449	0.352
NCI-H1437	0.536	0.533	0.598	0.531	0.481	0.813	0.876	0.821	0.875	0.995	0.298	0.317	0.3	0.297	0.262	0.589	0.611	0.611	0.635	0.532
NCI-H2347	0.588	0.67	0.593	0.601	0.631	0.245	0.452	0.48	0.293	0.466	0.417	0.411	0.378	0.394	0.442	0.587	0.354	0.562	0.49	0.612

From the supplement of paper PMC10307832
